Source: the NIST ThermoML archive (doi:10.1016/j.jct.2016.03.026)
Values joined by “and” are separate entries in the source; they are usually repeats but may differ in a detail not shown here. Equal entries are not always repeated.

Experiment: xn = mol fraction of the nth substance listed
Details: Fluid (supercritical or subcritical phases), Frequency=5 MHz, Pulse-echo method

O=C=O [carbon dioxide] + CO
Details | speed of sound
313.15 K, 90000 kPa, x1 = 0.97 | 980.1 m/s
313.15 K, 100110 kPa, x1 = 0.97 | 1019.5 m/s
313.15 K, 109900 kPa, x1 = 0.97 | 1055.1 m/s
313.15 K, 120040 kPa, x1 = 0.97 | 1089.6 m/s
313.15 K, 140110 kPa, x1 = 0.97 | 1152.5 m/s
313.15 K, 159960 kPa, x1 = 0.97 | 1208.8 m/s
313.15 K, 179840 kPa, x1 = 0.97 | 1260.7 m/s
323.14 K, 24960 kPa, x1 = 0.925 | 536.3 m/s and 537.4 m/s
323.14 K, 24980 kPa, x1 = 0.925 | 537.5 m/s
323.14 K, 25000 kPa, x1 = 0.925 | 537.5 m/s
323.14 K, 29980 kPa, x1 = 0.925 | 591.2 m/s
323.14 K, 29990 kPa, x1 = 0.925 | 591.2 m/s and 590.7 m/s and 591.5 m/s
323.14 K, 34960 kPa, x1 = 0.925 | 636.5 m/s and 637.2 m/s
323.14 K, 34980 kPa, x1 = 0.925 | 637.4 m/s
323.14 K, 34990 kPa, x1 = 0.925 | 637.5 m/s
323.14 K, 39980 kPa, x1 = 0.925 | 678 m/s and 677.9 m/s
323.14 K, 39990 kPa, x1 = 0.925 | 678.6 m/s
323.14 K, 40000 kPa, x1 = 0.925 | 678.2 m/s
323.14 K, 44980 kPa, x1 = 0.925 | 714.6 m/s and 714.8 m/s
323.14 K, 45000 kPa, x1 = 0.925 | 714.7 m/s
323.14 K, 49960 kPa, x1 = 0.925 | 748 m/s
323.14 K, 49980 kPa, x1 = 0.925 | 748.4 m/s and 748.2 m/s
323.14 K, 50000 kPa, x1 = 0.925 | 748.4 m/s
323.14 K, 54960 kPa, x1 = 0.925 | 779.2 m/s
323.14 K, 54980 kPa, x1 = 0.925 | 779.1 m/s
323.14 K, 55000 kPa, x1 = 0.925 | 779.3 m/s
323.14 K, 55010 kPa, x1 = 0.925 | 779.4 m/s
323.14 K, 59980 kPa, x1 = 0.925 | 807.9 m/s and 808.1 m/s
323.14 K, 59990 kPa, x1 = 0.925 | 808.2 m/s
323.14 K, 60030 kPa, x1 = 0.925 | 808.2 m/s
323.14 K, 64970 kPa, x1 = 0.925 | 835.2 m/s and 835.3 m/s and 835.1 m/s
323.14 K, 64990 kPa, x1 = 0.925 | 835.4 m/s
323.14 K, 69970 kPa, x1 = 0.925 | 860.9 m/s and 860.8 m/s
323.14 K, 69980 kPa, x1 = 0.925 | 861 m/s
323.14 K, 69990 kPa, x1 = 0.925 | 860.9 m/s
323.14 K, 74950 kPa, x1 = 0.925 | 885 m/s
323.14 K, 74990 kPa, x1 = 0.925 | 885.2 m/s
323.14 K, 75000 kPa, x1 = 0.925 | 885.4 m/s
323.14 K, 75060 kPa, x1 = 0.925 | 885.5 m/s
323.14 K, 79970 kPa, x1 = 0.925 | 908.3 m/s
323.14 K, 79990 kPa, x1 = 0.925 | 908.5 m/s and 908.4 m/s
323.14 K, 80000 kPa, x1 = 0.925 | 908.4 m/s
323.14 K, 89990 kPa, x1 = 0.925 | 951.7 m/s
323.14 K, 90000 kPa, x1 = 0.925 | 951.8 m/s and 952 m/s
323.14 K, 99950 kPa, x1 = 0.925 | 991.5 m/s
323.14 K, 100000 kPa, x1 = 0.925 | 992.1 m/s
323.14 K, 100010 kPa, x1 = 0.925 | 991.8 m/s and 991.7 m/s
323.14 K, 109960 kPa, x1 = 0.925 | 1028.8 m/s
323.14 K, 109980 kPa, x1 = 0.925 | 1029.1 m/s and 1028.9 m/s
323.14 K, 109990 kPa, x1 = 0.925 | 1029 m/s
323.14 K, 119970 kPa, x1 = 0.925 | 1063.9 m/s and 1063.8 m/s
323.14 K, 119990 kPa, x1 = 0.925 | 1063.9 m/s
323.14 K, 129960 kPa, x1 = 0.925 | 1096.8 m/s
323.14 K, 129980 kPa, x1 = 0.925 | 1096.8 m/s
323.14 K, 129990 kPa, x1 = 0.925 | 1096.8 m/s
323.14 K, 130020 kPa, x1 = 0.925 | 1096.9 m/s
323.14 K, 139960 kPa, x1 = 0.925 | 1128 m/s
323.14 K, 139990 kPa, x1 = 0.925 | 1128 m/s and 1128.1 m/s
323.14 K, 140000 kPa, x1 = 0.925 | 1128.1 m/s
323.14 K, 149960 kPa, x1 = 0.925 | 1157.6 m/s
323.14 K, 149980 kPa, x1 = 0.925 | 1157.7 m/s
